In patent US20220226272A1, “DIETARY BUTYRATE AND ITS USES” (SOCIETE DES PRODUITS NESTLE S.A., priority 2019, published 2022):

How the values were obtained:
[1] = tested on: rabbit gastric lipase (RGL) followed by porcine pancreatic lipase (PPL); assay: Sequential in vitro digestion SGF followed by SIF, pH-stat; assay type: in vitro ADME
[2] = target: T1, porcine pancreatic lipase (PPL) (Sus scrofa, UniProt P00591); assay: In vitro digestion in simulated intestinal fluid (SIF), pH-stat; assay type: in vitro ADME; conditions: SIF alone; 200 mg fat emulsion, pH 6.8, 37° C.
T1 construct: by porcine pancreatic lipase (from pancreatin); purchased Sigma-Aldrich P7585; host or cells: porcine pancreas extract (pancreatin)
T1 sequence (P00591 1-450): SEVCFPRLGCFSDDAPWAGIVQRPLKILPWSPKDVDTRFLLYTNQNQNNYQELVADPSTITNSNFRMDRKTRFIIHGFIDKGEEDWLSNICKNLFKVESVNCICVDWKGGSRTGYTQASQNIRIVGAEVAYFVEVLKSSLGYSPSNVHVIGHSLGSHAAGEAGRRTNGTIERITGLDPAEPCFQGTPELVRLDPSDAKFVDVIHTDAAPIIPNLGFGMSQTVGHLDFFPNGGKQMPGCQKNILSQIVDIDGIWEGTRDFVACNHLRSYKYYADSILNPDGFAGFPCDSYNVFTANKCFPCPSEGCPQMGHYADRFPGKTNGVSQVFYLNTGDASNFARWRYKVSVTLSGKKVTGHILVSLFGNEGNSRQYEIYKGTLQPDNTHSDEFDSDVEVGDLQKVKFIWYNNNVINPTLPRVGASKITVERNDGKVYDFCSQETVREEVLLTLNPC
T1 sequence (P02703 23-112 partner): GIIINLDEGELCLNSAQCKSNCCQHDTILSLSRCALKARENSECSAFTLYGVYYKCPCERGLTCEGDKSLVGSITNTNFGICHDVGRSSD

initial lipolysis rate in SIF compartment ([1]; SGF-SIF sequential digestion, 200 mg fat emulsion): 44.1 ± 8.8 µmol/min
hydrolysis in the stomach (gastric lipolysis), in words ([1]; gastric compartment of the model): extensive hydrolysis
lipolysis by gastric lipase ([1]; indicated by decreased total fatty acid release in SIF after RGL pre-exposure): ~60%
initial rate of lipolysis [2]: 223 ± 59 µmol/min
SMILES: CCCC(=O)OCC(COC(=O)CCC)OC(=O)CCC [tributyrin]
